# Experimental data: paper PMC8808171, “Nonselective TRPC channel inhibition and suppression of aminoglycoside-induced premature termination codon readthrough by the small molecule AC1903” (The Journal of Biological Chemistry, 2022)
# Tested on: TC-71 cells (TP53 R213X)
# Assay: G418-induced PTC readthrough (full-length p53, capillary electrophoresis Western) in TC-71 cells
# Assay type: cell-based
# Conditions: without G418
# Text: Variation in PTC readthrough response has been reported among individuals or cell lines with different nonsense mutations. Although this in part highlights the importance of the stop codon and its surrounding sequence as well as the physical location of the nonsense mutation in the mRNA sequence, understanding the contribution of other underlying genetic variations becomes more complicated. To rule out the effect of the sequence and position of nonsense mutations on response variation to potential PTC readthrough modulators, we studied two cancer cell lines, DMS-114 and TC-71, with identical homozygous nonsense mutation R213X in their TP53 gene. […] To find out whether the reduced response to G418 in TC-71 cells was associated with lower intracellular levels of G418, we measured concentrations of G418 in both cell lines at 0, 8 and 24 h post exposure to G418 (100 μg/ml).
# Figure 1 Effect of TRPC inhibitors on G418 induced PTC readthrough. A, DMS-114 and TC-71 cell lines with homozygous TP53 nonsense mutation (R213X) were exposed to indicated concentrations of G418 for 24 h and p53 levels (full-length, FL-p53; truncated, TR-p53) were measured. B, 100 μg/ml G418 was added to DMS-114 and TC-71 cells and its total intracellular levels were measured at indicated time points (n = 5; data normalized to the highest response in each experiment; bars represent mean ± SD). […]
smiles,measurement,value
c1ccc(Cn2c(NCc3ccco3)nc3ccccc32)cc1 [AC1903],effect on PTC readthrough of AC1903 alone,did not affect PTC readthrough
